Results from US20250282724A1, “BENZOTRIAZOLE COMPOUND” (DAIICHI SANKYO COMPANY, LIMITED, priority 2022, published 2025).
Blank lines part the entries; values can stand above or below the compound they belong to.

Legend:
[1] = tested on: NQO1 activity in Hepa1c1c7 cells; assay: NAD(P)H: quinone oxidoreductase-1 (NQO1) enzyme induction assay (in vitro); assay type: cell-based, mouse; details: about 48 hr, ratio from the base without the compound; for activity ratio (NQO1 activity ratio): 400 nM of test compound; for fold induction at 0.4 µM: Mus musculus, Hepa-1c1c7, 400 nM of test compound
Experimental: The NQO1 assay was performed based on a previous report (Methods in Enzymology 2004; 382: 243-258). Hepa1c1c7 cells (mouse hepatocyte cell line, ATCC, cat. no. CRL-2026) were cultured in D-MEM medium containing 10% FBS and 1% penicillin/streptomycin (5% CO2, 37° C.), and seeded into 96-well plates (Corning REF. 353072) at 1×10^4 cells/well. A portion of the wells were prepared with medium only for background measurement without seeding cells. The next day, 400 nM of the test compound (0.004% of the final concentration in DMSO) dissolved in DMSO was added thereto, and the wells were incubated for about 48 hr. A well without adding the test compound was prepared for base activity assay in part.
Cell lysate (solution containing 0.8% digitonin, 2 mM EDTA), reaction solution (solution containing 25 mM Tris-HCl, 0.07% albumin, 0.01% Tween-20, 2 U/mL glucose-6-phosphate dehydrogenase, 5 μM flavin adenine dinucleotide, 1 μM glucose-6-phosphate, […] nicotinamide adenine dinucleotide phosphate, 0.03% 3-(4,5-dimethyl-2-thiazolyl)-2,5-diphenyltetrazolium bromide (MTT), and 50 μM menadione), stop solution (solution containing 0.3 mM dicoumarol and 5 mM potassium dihydrogen phosphate, pH 7.4) were prepared. After the medium was removed, 50 μL of the cell lysate was added and incubated at 37° C. for 10 minutes, followed by shaking at room temperature for 10 minutes. 200 μL of reaction solution was added thereto, and allowed to stand for 5 minutes at room temperature. 50 μL of the stop solution was added thereto, and absorbance was measured at 610 nm on a SpectraMax PLUS384 (Molecular devices) or POWERSCAN HT (DS Pharma Biomedical). The test results were analyzed in Excel, and the NQO1 activity upon addition of 400 nM of test compound was calculated as a ratio from the base without the compound.
The results of each test compound in this test are shown in the following Table 2 (A:5<NQO1 activity ratio, B:3<NQO1 activity ratio≤5).

[2] = Measurement test of plasma drug concentration after oral administration in rats; assay type: in vivo, rat; details: 10 mg/2 mL/kg oral, suspended in 0.5% methylcellulose, male SD rats
Experimental: 10 mg/2 mL/kg of the test compound suspended in 0.5% methylcellulose solution were force-fed to Male SD rats (7 weeks old, Japan SLC). Blood was collected from the jugular vein using a syringe with heparin at 0.5, 1, 2, 4, 6, and 24 hr after administration. After blood collection, to 20 μL of centrifuged plasma was added an equal volume of acetonitrile followed by 200 μL of internal standard (IS) solution. After agitation, all the supernatant after centrifugation was filtered, and the collected filtrate was used as the assay sample. Equal volumes of the test compound solution prepared in acetonitrile were added to blank plasma, and the samples processed in the same manner as above were used as samples for the calibration curve. The prepared samples were measured using LC/MS/MS, and the area under the blood concentration-time curve (AUC) was calculated from the compound concentration in plasma.

Compound: CC[C@@H]1CN(Cc2cc([C@@H](CC(=O)O)c3ccc4c(nnn4C)c3C)cc3ccsc23)C(C)c2nc(O)ccc2O1 (single isomer, unassigned) [Example 78, (3R)-3-(1,4-Dimethyl-1H-benzotriazol-5-yl)-3-(7-{[(2R,5S*)-2-ethyl-7-hydroxy-5-methyl-2,3-dihydropyrido[2,3-f][1,4]oxazepin-4(5H)-yl]methyl}-1-benzothiophen-5-yl)propanoic acid]
activity ratio (NQO1 activity ratio) [1]: A (5<NQO1 activity ratio)

Compound: Cc1c([C@H](CC(=O)O)c2cc(CN3C[C@@H](C4CC4)Oc4ccc(O)nc4C3C)c3sccc3c2)cnc2c1nnn2C (single isomer, unassigned) [Example 85, (3R)-3-(7-{[(2R,5R*)-2-Cyclopropyl-7-hydroxy-5-methyl-2,3-dihydropyrido[2,3-f][1,4]oxazepin-4(5H)-yl]methyl}-1-benzothiophen-5-yl)-3-(3,7-dimethyl-3H-[1,2,3]triazolo[4,5-b]pyridin-6-yl)propanoic acid]
activity ratio (NQO1 activity ratio) [1]: A (5<NQO1 activity ratio)

maximam plasma concentration [2]: 0.029 µM
Compound: CC[C@@H]1CN(Cc2cc([C@H](CC(=O)O)c3ccc4c(nnn4C)c3C)cc3c2CCC3)S(=O)(=O)c2cc(Cl)cnc2O1 [Example 4, (3S)-3-(7-{[(4R)-8-Chloro-4-ethyl-1,1-dioxido-3,4-dihydro-2H-pyrido[2,3-b][1,4,5]oxathiazepin-2-yl]methyl}-2,3-dihydro-1H-inden-5-yl)-3-(1,4-dimethyl-1H-benzotriazol-5-yl)propanoic acid]

maximam plasma concentration [2]: 0.006 µM
Compound: CC[C@@H]1CN(Cc2cc([C@@H](CC(=O)O)c3ccc4c(nnn4C)c3C)cc3c2CCC3)S(=O)(=O)c2cc(Cl)cnc2O1 [Example 5, (3R)-3-(7-{[(4R)-8-Chloro-4-ethyl-1,1-dioxido-3,4-dihydro-2H-pyrido[2,3-b][1,4,5]oxathiazepin-2-yl]methyl}-2,3-dihydro-1H-inden-5-yl)-3-(1,4-dimethyl-1H-benzotriazol-5-yl)propanoic acid]

maximam plasma concentration [2]: 0.009 µM
Compound: CC[C@@H]1CN(Cc2cc([C@H](CC(=O)O)c3ccc4c(nnn4C)c3C)cc3ccsc23)S(=O)(=O)c2cc(Cl)cnc2O1 [Example 7, (3S)-3-(7-{[(4R)-8-Chloro-4-ethyl-1,1-dioxido-3,4-dihydro-2H-pyrido[2,3-b][1,4,5]oxathiazepin-2-yl]methyl}-1-benzothiophen-5-yl)-3-(1,4-dimethyl-1H-benzotriazol-5-yl)propanoic acid]

maximam plasma concentration [2]: 0.005 µM
Compound: CC[C@@H]1CN(Cc2cc([C@@H](CC(=O)O)c3ccc4c(nnn4C)c3C)cc3ccsc23)S(=O)(=O)c2cc(Cl)cnc2O1 [Example 8, (3R)-3-(7-{[(4R)-8-Chloro-4-ethyl-1,1-dioxido-3,4-dihydro-2H-pyrido[2,3-b][1,4,5]oxathiazepin-2-yl]methyl}-1-benzothiophen-5-yl)-3-(1,4-dimethyl-1H-benzotriazol-5-yl)propanoic acid]

Compound: CC[C@@H]1CN(Cc2cc(C(CC(=O)O)c3ccc4c(nnn4C)c3C)cc3c2CCC3)S(=O)(=O)c2ccc(Cl)cc2O1 (stereo partly drawn) [Example 15, 3-(7-{[(4R)-7-Chloro-4-ethyl-1,1-dioxido-3,4-dihydro-2H-5,1,2-benzoxathiazepin-2-yl]methyl}-2,3-dihydro-1H-inden-5-yl)-3-(1,4-dimethyl-1H-benzotriazol-5-yl)propanoic acid]
fold induction at 0.4 µM [1]: > 5

Compound: Cc1c(C(CC(=O)O)c2cc3c(c(CN4CC5(CCOCC5)Oc5ncccc5S4(=O)=O)c2)CCC3)ccc2c1nnn2C (centres unmarked) [Example 33, 3-(1,4-Dimethyl-1H-benzotriazol-5-yl)-3-{7-[(1′,1′-dioxido-2,3,5,6-tetrahydrospiro[pyran-4,4′-pyrido[2,3-b][1,4,5]oxathiazepine]-2′ (3′H)-yl)methyl]-2,3-dihydro-1H-inden-5-yl}propanoic acid]
fold induction at 0.4 µM [1]: > 5

Compound: Cc1c(C(CC(=O)O)c2cc3c(c(CN4CC5(CCC5)Oc5ncccc5S4(=O)=O)c2)CCC3)ccc2c1nnn2C (centres unmarked) [Example 35, 3-(1,4-Dimethyl-1H-benzotriazol-5-yl)-3-{7-[(1′,1′-dioxido-spiro[cyclobutane-1,4′-pyrido[2,3-b][1,4,5]oxathiazepine]-2′(3′H)-yl)methyl]-2,3-dihydro-1H-inden-5-yl}propanoic acid]
fold induction at 0.4 µM [1]: > 5

Compound: Cc1c(C(CC(=O)O)c2cc3c(c(CN4CC5(COC5)Oc5ncccc5S4(=O)=O)c2)CCC3)ccc2c1nnn2C (centres unmarked) [Example 36, 3-(1,4-Dimethyl-1H-benzotriazol-5-yl)-3-{7-[(1′,1′-dioxido-spiro[oxetane-3,4′-pyrido[2,3-b][1,4,5]oxathiazepine]-2′ (3′H)-yl)methyl]-2,3-dihydro-1H-inden-5-yl}propanoic acid]
fold induction at 0.4 µM [1]: > 5

Compound: CC[C@@H]1CN(Cc2cc([C@@H](CC(=O)O)c3ccc4c(nnn4C)c3C)cc3c2CCC3)S(=O)(=O)c2cccc(Cl)c2O1 [Example 48, (3R)-3-(7-{[(4R)-6-Chloro-4-ethyl-1,1-dioxido-3,4-dihydro-2H-5,1,2-benzoxathiazepin-2-yl]methyl}-2,3-dihydro-1H-inden-5-yl)-3-(1,4-dimethyl-1H-benzotriazol-5-yl)propanoic acid]
activity ratio (NQO1 activity ratio) [1]: A (5<NQO1 activity ratio)

Compound: CC[C@@H]1CN(Cc2cc([C@H](CC(=O)O)c3ccc4c(nnn4C)c3C)cc3ccsc23)[C@@H](C)c2ncccc2O1 [Example 62, (3S)-3-(1,4-Dimethyl-1H-benzotriazol-5-yl)-3-(7-{[(2R,5S)-2-ethyl-5-methyl-2,3-dihydropyrido[2,3-f][1,4]oxazepin-4(5H)-yl]methyl}-1-benzothiophen-5-yl)propanoic acid]
activity ratio (NQO1 activity ratio) [1]: A (5<NQO1 activity ratio)

Compound: CC[C@@H]1CN(Cc2cc([C@H](CC(=O)O)c3cc(Cl)c4c(nnn4C)c3C)cc3c2CCC3)S(=O)(=O)c2cc(Cl)cnc2O1 [Example 96, (3S)-3-(7-Chloro-1,4-dimethyl-1H-benzotriazol-5-yl)-3-(7-{[(4R)-8-chloro-4-ethyl-1,1-dioxido-3,4-dihydro-2H-pyrido[2,3-b][1,4,5]oxathiazepin-2-yl]methyl}-2,3-dihydro-1H-inden-5-yl)propanoic acid]
activity ratio (NQO1 activity ratio) [1]: A (5<NQO1 activity ratio)

Compound: CC[C@@H]1CN(Cc2cc([C@@H](CC(=O)O)c3cc(Cl)c4c(nnn4C)c3C)cc3c2CCC3)S(=O)(=O)c2cc(Cl)cnc2O1 [Example 97, (3R)-3-(7-Chloro-1,4-dimethyl-1H-benzotriazol-5-yl)-3-(7-{[(4R)-8-chloro-4-ethyl-1,1-dioxido-3,4-dihydro-2H-pyrido[2,3-b][1,4,5]oxathiazepin-2-yl]methyl}-2,3-dihydro-1H-inden-5-yl)propanoic acid]
activity ratio (NQO1 activity ratio) [1]: A (5<NQO1 activity ratio)
